Tested on: mixture of bacterial species: Pseudomonas aeruginosa, Pseudomonas fluorescens, Pseudomonas oleovorans, Pseudomonas rubescens, Pseudomonas stutzeri, Alcaligenes …
Assay: Microbiological stress test (preservation stress test) in calcium carbonate slurry
Assay type: cell-based
Settings: calcium carbonate slurry (solids 70-75%), 3 days 60° C. pre-stress, weekly contamination
Description: Microbiological Stress Test The microbiological stress test examines the susceptibility of water-based systems to microbial attack and the efficacy of preservatives. To this end, defined concentrations of the preservatives are incorporated into the water-based systems. To simulate reality-like conditions, depending on the medium to be examined, the sample may be stored at elevated temperatures (for example for 7 days at 40° C., for 3 days at 60° C. or the like) prior to carrying out the actual preservation test, in order to evaluate the preservatives to be tested under conditions which are as realistic as possible. After the preliminary work has been concluded, there is, at weekly intervals, a contamination with microorganisms of a defined type over a test period of at most 6 weeks. 2-3 and 7 days after each contamination it is established by germ number determination, whether there has been a complete kill or at least an inhibition of proliferation of the microorganisms introduced, compared to the non-preserved control samples. On account of the microorganism populations known to predominate in mineral suspensions and dispersions, for the experiment, a mixture of the following bacterial species was used for the test: Pseudomonas aeruginosa Pseudomonas fluorescens Pseudomonas oleovorans Pseudomonas rubescens Pseudomonas stutzeri Alcaligenes faecalis Citrobacter freundii Corynebacterium sp. Very good efficacy is achieved when the preserved samples effect a kill of the microorganisms introduced even after 6 contamination cycles. […] Using a calcium carbonate slurry (solids content 70-75%), a preservation stress test was carried out in accordance with the above scheme. After incorporation of the respective biocide products at the stated concentrations, the samples were exposed to thermal stress at 60° C. for 3 days in order to identify unstable active compound components in the biocide products even at this phase of the experiment by subsequent loss of activity.

For `O=c1[nH]sc2ccccc12` [benzisothiazolinone, 1,2-benzisothiazolin-3-one], the “Preservation state Week 1” value (100 ppm) was “ok”, the “Preservation state Week 2” value (100 ppm) was “spoilt” and the “Preservation state Week 3” value (100 ppm) was “spoilt”. The “Preservation state Week 4” value (100 ppm) was “spoilt”, the “Preservation state Week 5” value (100 ppm) was “spoilt” and the “Preservation state Week 6” value (100 ppm) was “spoilt”. For the same compound, the “Preservation state Week 1” value (150 ppm) was “ok”, the “Preservation state Week 2” value (150 ppm) was “ok” and the “Preservation state Week 3” value (150 ppm) was “spoilt”. For the same compound, the “Preservation state Week 4” value (150 ppm) was “spoilt”, the “Preservation state Week 5” value (150 ppm) was “spoilt” and the “Preservation state Week 6” value (150 ppm) was “spoilt”. The “Preservation state Week 1” value (200 ppm) was “ok”, the “Preservation state Week 2” value (200 ppm) was “ok” and the “Preservation state Week 3” value (200 ppm) was “ok”. The “Preservation state Week 4” value (200 ppm) was “spoilt”, the “Preservation state Week 5” value (200 ppm) was “spoilt” and the “Preservation state Week 6” value (200 ppm) was “spoilt”.
